According to patent US10988523B2, “Modified lipidated Relaxin B chain peptides and their therapeutic use” (Sanofi, priority 2018, dated 2021):
*1 amine or outer side, *2 acyl side, *3 side chain or, on linkers, in order; H or OH if unused. Where a SMILES comes first, the peptide text is derived from it. Side-chain parts run from the residue outwards. [ ]: non-standard residue; d: D form. The star is where a group is joined. PEG12 = NCCOCCOCCOCCOCCOCCOCCOCCOCCOCCOCCOCCOCCC(=O)O; γGlu = O=C(O)[C@H](CCC(=O)[*:2])N[*:1]; 1Nal = N[C@@H](Cc1cccc2ccccc12)C(=O)O; Stearoyl = CCCCCCCCCCCCCCCCCC(=O)*; Palmitoyl = CCCCCCCCCCCCCCCC(=O)*; αMeK = C[C@](N)(CCCCN)C(=O)O; αMeS = C[C@](N)(CO)C(=O)O; Nle = CCCC[C@H](N)C(=O)O; Aib = CC(C)(N)C(=O)O

Legend:
[1] = Pharmacokinetic (PK) determination after i.v. or s.c. administration to rats; assay type: in vivo, Sprague Dawley rats; settings: Rat PK; for C0 / half-life / Cmax / Tmax / bioavailability: Sprague Dawley; for C0 / half-life: iv; for C0: extrapolated plasma concentration at t=0, read-out: C0; for half-life / Cmax / Tmax / bioavailability: plasma; for half-life: read-out: T½ (converted); for Cmax / Tmax: sc, 3 mg/kg s.c.; for bioavailability: subcutaneous, 3 mg/kg s.c. vs 1 mg/kg i.v., dose-corrected AUC ratio
Protocol: Prior to the testing of a peptide batch, its purity (HPLC-UV) was determined. Dose was corrected for presence of salts, solvent and purity.
Sprague Dawley rats were dosed with study peptide at a dose of 1 mg/kg intravenously (i.v.) or 3 mg/kg subcutaneously (s.c.) as a solution in PBS (0.2 mg/ml and 0.6 mg/ml respectively).
Plasma samples were analyzed after protein precipitation via liquid chromatography mass spectrometry (LC/MS).
PK parameters and half-life were calculated using Phoenix 64 (WinNonlin 6.4)-Pharsight (Certara™) (non-compartment model). Values below the limit of quantification (BLQ) were replaced by zero for subsequent calculations and PK analysis.
T½: in-vivo half life, time required for test compound plasma concentration to be divided by two during the PK experiment.
C0: Extrapolated test compound plasma concentration at t=0 time point (i.v. route).
Cmax: maximal test compound plasma concentration at the indicated time point (s.c. route).
Tmax: Time point where Cmax is attained.
F %: s.c. vs i.v. bioavailability, dose-corrected area under curve (AUC) s.c. route divided by AUC i.v.

RXFP1 = biological target: T1, RXFP1 (Homo sapiens, UniProt Q9HBX9); test: OVCAR5 cAMP assay (HTRF), RXFP1 agonist activity; assay type: cell-based; settings: for EC50: OVCAR5 cells, cAMP HTRF, read-out: EC50 (nM), OVCAR 5 cells (cAMP); for Emax: OVCAR-5, maximal cAMP relative to H2-relaxin maximum (100%), read-out: EMax, OVCAR 5 cells (cAMP)
T1 construct: OVCAR5 cells expressing endogenous RXFP1; endogenous in cells; host or cells: OVCAR5 cells
T1 sequence (Q9HBX9 1-757): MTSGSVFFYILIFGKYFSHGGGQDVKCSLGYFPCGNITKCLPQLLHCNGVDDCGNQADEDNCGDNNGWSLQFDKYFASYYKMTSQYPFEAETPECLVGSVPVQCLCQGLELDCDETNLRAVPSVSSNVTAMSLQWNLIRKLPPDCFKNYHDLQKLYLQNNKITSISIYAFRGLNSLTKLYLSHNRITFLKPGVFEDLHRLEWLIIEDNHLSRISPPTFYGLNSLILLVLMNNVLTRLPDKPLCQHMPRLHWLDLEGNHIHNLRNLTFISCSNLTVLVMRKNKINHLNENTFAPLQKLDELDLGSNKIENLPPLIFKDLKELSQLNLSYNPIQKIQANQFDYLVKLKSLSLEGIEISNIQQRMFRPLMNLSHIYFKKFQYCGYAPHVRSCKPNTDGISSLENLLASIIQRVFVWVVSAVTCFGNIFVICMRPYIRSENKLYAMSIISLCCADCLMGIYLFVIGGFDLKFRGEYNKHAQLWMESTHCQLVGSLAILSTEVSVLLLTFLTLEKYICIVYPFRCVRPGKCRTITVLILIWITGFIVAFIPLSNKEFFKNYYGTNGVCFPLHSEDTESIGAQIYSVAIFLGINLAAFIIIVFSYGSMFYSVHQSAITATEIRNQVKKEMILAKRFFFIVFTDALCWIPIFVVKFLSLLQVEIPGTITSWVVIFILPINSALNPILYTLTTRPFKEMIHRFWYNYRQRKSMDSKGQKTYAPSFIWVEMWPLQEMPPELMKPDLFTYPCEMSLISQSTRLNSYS
Method in brief: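 OVCAR5 cells (endogenous RXFP1) pretreated 40 min at 37° C with 1 mM IBMX, then exposed to peptides in serum-free medium for 30 min at 37° C. Lysate cAMP read by HTRF; EC50 from variable-slope sigmoidal fit; Emax as % of H2-relaxin maximal cAMP in same run.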

SMILES	C0 ([1]; 1 mg/kg i.v.) [nM]	half-life ([1]; 1 mg/kg i.v.) [h]	Cmax [1] [nM]	Tmax [1] [h]	bioavailability [1] [%]	EC50 (RXFP1) [nM]	Emax (RXFP1) [%]	T½ ([1]; 1 mg/kg i.v.) [h]
CCCCCCCCCCCCCCCC(=O)N[C@@H](CCC(=O)N[C@@H](CCC(=O)N[C@@H](CCC(=O)NCCCC[C@H](NC(=O)CCOCCOCCOCCOCCOCCOCCOCCOCCOCCOCCOCCOCCNC(=O)[C@H](CCCCNC(C)=O)NC(=O)[C@H](CCCCN)NC(=O)[C@H](CCCNC(=N)N)NC(=O)C(C)(C)NC(=O)[C@H](CO)NC(=O)[C@H](Cc1c[nH]c2ccccc12)NC(=O)[C@@H](NC(=O)[C@H](CO)NC(=O)[C@H](CCCC)NC(=O)CNC(=O)[C@H](CCC(=O)O)NC(=O)C(C)(C)NC(=O)C(C)(C)NC(=O)[C@@H](NC(=O)[C@H](CCCCNC(C)=O)NC(=O)[C@H](C)NC(=O)[C@H](CCCNC(=N)N)NC(=O)[C@@H](NC(=O)[C@H](CCCCN)NC(=O)[C@H](CCC(=O)O)NC(=O)[C@H](CCCNC(=N)N)NC(=O)CNC(=O)[C@H](CCC(=O)O)NC(=O)[C@H](CC(C)C)NC(C)=O)C(C)C)[C@@H](C)CC)[C@@H](C)O)C(N)=O)C(=O)O)C(=O)O)C(=O)O [compound 26] (Ac-LEGREKVRAK(Ac)I[Aib][Aib]EG[Nle]STWS[Aib]RKK(Ac)[PEG12]K([γGlu-γGlu-γGlu-Palmitoyl])-NH2)	2330	5.8	770	8	72	0.57	85	–
CCCCCCCCCCCCCCCC(=O)N[C@@H](CCC(=O)N[C@@H](CCC(=O)N[C@@H](CCC(=O)NCCCC[C@H](NC(=O)CCOCCOCCOCCOCCOCCOCCOCCOCCOCCOCCOCCOCCNC(=O)[C@H](CCCCNC(C)=O)NC(=O)[C@H](CCCCN)NC(=O)[C@H](CCCNC(=N)N)NC(=O)C(C)(C)NC(=O)[C@H](CO)NC(=O)[C@H](Cc1c[nH]c2ccccc12)NC(=O)[C@@H](NC(=O)[C@H](CO)NC(=O)[C@H](CCCC)NC(=O)CNC(=O)[C@H](CCC(=O)O)NC(=O)C(C)(C)NC(=O)C(C)(C)NC(=O)[C@@H](NC(=O)[C@H](CCCCNC(C)=O)NC(=O)C(C)(C)NC(=O)[C@H](CCCNC(=N)N)NC(=O)[C@@H](NC(=O)[C@H](CCCCN)NC(=O)[C@H](CCC(=O)O)NC(=O)[C@H](CCCNC(=N)N)NC(=O)CNC(=O)[C@H](CCC(=O)O)NC(=O)[C@H](CC(C)C)NC(C)=O)C(C)C)[C@@H](C)CC)[C@@H](C)O)C(N)=O)C(=O)O)C(=O)O)C(=O)O [compound 27] (Ac-LEGREKVR[Aib]K(Ac)I[Aib][Aib]EG[Nle]STWS[Aib]RKK(Ac)[PEG12]K([γGlu-γGlu-γGlu-Palmitoyl])-NH2)	3200	–	1500	8	62	0.3	86	6.90
CCCCCCCCCCCCCCCCCC(=O)N[C@@H](CCC(=O)N[C@@H](CCC(=O)N[C@@H](CCC(=O)NCCCC[C@H](NC(=O)CCOCCOCCOCCOCCOCCOCCOCCOCCOCCOCCOCCOCCNC(=O)[C@H](CCCCNC(C)=O)NC(=O)[C@H](CCCCN)NC(=O)[C@H](CCCNC(=N)N)NC(=O)C(C)(C)NC(=O)[C@H](CO)NC(=O)[C@H](Cc1cccc2ccccc12)NC(=O)[C@@H](NC(=O)[C@H](CO)NC(=O)[C@H](CCCC)NC(=O)CNC(=O)[C@H](CCC(=O)O)NC(=O)C(C)(C)NC(=O)C(C)(C)NC(=O)[C@@H](NC(=O)[C@H](CCCCNC(C)=O)NC(=O)C(C)(C)NC(=O)[C@H](CCCNC(=N)N)NC(=O)[C@@H](NC(=O)[C@H](CCCCN)NC(=O)[C@H](CCC(=O)O)NC(=O)[C@H](CCCNC(=N)N)NC(=O)CNC(=O)[C@H](CCC(=O)O)NC(=O)[C@H](CC(C)C)NC(C)=O)C(C)C)[C@@H](C)CC)[C@@H](C)O)C(N)=O)C(=O)O)C(=O)O)C(=O)O [compound 37] (Ac-LEGREKVR[Aib]K(Ac)I[Aib][Aib]EG[Nle]ST[1Nal]S[Aib]RKK(Ac)[PEG12]K([γGlu-γGlu-γGlu-Stearoyl])-NH2)	5560	2.55	1710	6	40	–	83	–
CCCCCCCCCCCCCCCC(=O)N[C@@H](CCC(=O)N[C@@H](CCC(=O)N[C@@H](CCC(=O)NCCCC[C@H](NC(=O)CCOCCOCCOCCOCCOCCOCCOCCOCCOCCOCCOCCOCCNC(=O)[C@H](CCCCN)NC(=O)[C@H](CCCNC(=N)N)NC(=O)C(C)(C)NC(=O)[C@H](CO)NC(=O)[C@H](Cc1c[nH]c2ccccc12)NC(=O)[C@@H](NC(=O)[C@H](CO)NC(=O)[C@H](CCCC)NC(=O)CNC(=O)[C@H](CCC(=O)O)NC(=O)C(C)(C)NC(=O)C(C)(C)NC(=O)[C@@H](NC(=O)[C@H](CCCCNC(C)=O)NC(=O)[C@H](C)NC(=O)[C@H](CCCNC(=N)N)NC(=O)[C@@H](NC(=O)[C@H](CCCCN)NC(=O)[C@H](CCC(=O)O)NC(=O)[C@H](CCCNC(=N)N)NC(=O)CNC(=O)[C@H](CCC(=O)O)NC(=O)[C@H](CC(C)C)NC(C)=O)C(C)C)[C@@H](C)CC)[C@@H](C)O)C(N)=O)C(=O)O)C(=O)O)C(=O)O [compound 38] (Ac-LEGREKVRAK(Ac)I[Aib][Aib]EG[Nle]STWS[Aib]RK[PEG12]K([γGlu-γGlu-γGlu-Palmitoyl])-NH2)	4370	7.16	2500	8	79	0.21	89	–
CCCCCCCCCCCCCCCCCC(=O)N[C@@H](CCC(=O)N[C@@H](CCC(=O)N[C@@H](CCC(=O)N[C@@H](CCC(=O)NCCCC[C@H](NC(=O)CCOCCOCCOCCOCCOCCOCCOCCOCCOCCOCCOCCOCCNC(=O)[C@H](CCCCNC(C)=O)NC(=O)[C@H](CCCCN)NC(=O)[C@H](CCCNC(=N)N)NC(=O)[C@H](CCCCN)NC(=O)[C@](C)(CO)NC(=O)[C@H](Cc1c[nH]c2ccccc12)NC(=O)[C@@H](NC(=O)[C@H](CO)NC(=O)[C@H](CCCC)NC(=O)CNC(=O)[C@H](CCC(=O)O)NC(=O)C(C)(C)NC(=O)C(C)(C)NC(=O)[C@@H](NC(=O)[C@H](CCCCNC(C)=O)NC(=O)[C@H](C)NC(=O)[C@H](CCCNC(=N)N)NC(=O)[C@@H](NC(=O)[C@H](CCCCN)NC(=O)[C@H](CCC(=O)O)NC(=O)[C@H](CCCNC(=N)N)NC(=O)CNC(=O)[C@H](CCC(=O)O)NC(=O)[C@H](CC(C)C)NC(C)=O)C(C)C)[C@@H](C)CC)[C@@H](C)O)C(N)=O)C(=O)O)C(=O)O)C(=O)O)C(=O)O [compound 39] (Ac-LEGREKVRAK(Ac)I[Aib][Aib]EG[Nle]STW[αMeS]KRKK(Ac)[PEG12]K([γGlu-γGlu-γGlu-γGlu-Stearoyl])-NH2)	4100	3.7	1570	8	62	0.03	91	–
CCCCCCCCCCCCCCCCCC(=O)N[C@@H](CCC(=O)N[C@@H](CCC(=O)N[C@@H](CCC(=O)N[C@@H](CCC(=O)NCCCC[C@H](NC(=O)CCOCCOCCOCCOCCOCCOCCOCCOCCOCCOCCOCCOCCNC(=O)[C@H](CCCCNC(C)=O)NC(=O)[C@H](CCCCN)NC(=O)[C@H](CCCNC(=N)N)NC(=O)[C@](C)(CCCCN)NC(=O)[C@](C)(CO)NC(=O)[C@H](Cc1c[nH]c2ccccc12)NC(=O)[C@@H](NC(=O)[C@H](CO)NC(=O)[C@H](CCCC)NC(=O)CNC(=O)[C@H](CCC(=O)O)NC(=O)C(C)(C)NC(=O)C(C)(C)NC(=O)[C@@H](NC(=O)[C@H](CCCCNC(C)=O)NC(=O)[C@H](C)NC(=O)[C@H](CCCNC(=N)N)NC(=O)[C@@H](NC(=O)[C@H](CCCCN)NC(=O)[C@H](CCC(=O)O)NC(=O)[C@H](CCCNC(=N)N)NC(=O)CNC(=O)[C@H](CCC(=O)O)NC(=O)[C@H](CC(C)C)NC(C)=O)C(C)C)[C@@H](C)CC)[C@@H](C)O)C(N)=O)C(=O)O)C(=O)O)C(=O)O)C(=O)O [compound 40] (Ac-LEGREKVRAK(Ac)I[Aib][Aib]EG[Nle]STW[αMeS][αMeK]RKK(Ac)[PEG12]K([γGlu-γGlu-γGlu-γGlu-Stearoyl])-NH2)	7080	3.6	1540	6	66	0.02	90	–
